# Tested on: male Wistar rats
# Assay: Morris Water Maze (MWM), scopolamine-induced impairment of spatial learning and memory
# Type: in vivo, rat
# Conditions: 30 mg/kg i.p. 30 minutes prior to test start, with 0.1 mg/kg Scopolamine s.c., four trials per day, four days
# Text: The Morris Water Maze (MWM) is the favored test in behavioral neuroscience for the study of hippocampal-dependent learning and memory (see Morris R G: Developments of a Water Maze procedure for studying spatial learning in the rat; J. Neurosci. Meth. 1984 11 47-60). It is a standardized behavioral task to test spatial navigation in rodents, and is a highly sensitive test to assess cognition in animals.
# In the MWM performance animals have to remember the position of a submerged platform (10×10 cm) within a circular (Ø 150 cm) water tank using visual spatial cues. A number of eight (n=8) male Wistar rats were used for each group in each experiment. In four trials per day, for four consecutive acquisition days, they are released from different starting points close to the wall of the tank to find their way to the submerged platform. Spatial learning abilty is evaluated by latency to locate the platform.
# This learning impairment was reversed by 30 mg/kg of Compound 1 of the invention (i.p. administration 30 minutes prior to test start).
row,Structure (SMILES),Reversal of scopolamine-induced learning impairment (latency to locate the platform)
1,"O=C(Nc1cc(Cl)ccc1O)Nc1cc(C(F)(F)F)ccc1Cl [Compound 1, N-(3-Chloro-6-hydroxy-phenyl)-N′-(2-chloro-5-trifluoromethyl-phenyl)urea]",reversed

# Same assay, conditions: s.c. administration 30 minutes prior to test start
row,Structure (SMILES),Effect on spatial reference memory as measured in MWM (latency to locate the platform)
1,"CN1[C@@H]2C[C@@H](OC(=O)[C@H](CO)c3ccccc3)C[C@H]1[C@@H]1O[C@@H]12 [Scopolamine, reference compound]",significantly impairs

# Tested on: not given
# Assay: not given
# Conditions: not given
row,melting point,Structure (SMILES)
1,249 to 251 °C,O=C(Nc1ccc(-c2ccccc2)cc1)Nc1cc(Cl)c(O)c(Cl)c1
2,191 to 192 °C,O=C(Nc1ccc(-c2ccccc2)cc1)Nc1cc(Cl)ccc1O
3,190 to 192 °C,Cc1cc(O)cc(NC(=O)Nc2cc(C(F)(F)F)ccc2Cl)c1
4,252 to 253 °C,O=C(Nc1cccc(-c2ccccc2)c1)Nc1cc(Cl)c(O)c(Cl)c1
5,188 to 190 °C,Cc1cc(O)cc(NC(=O)Nc2cccc(C(F)(F)F)c2)c1
6,225 to 226 °C,COc1ccc(Cl)cc1NC(=O)Nc1ccc([N+](=O)[O-])cc1O
7,215 to 218 °C,O=C(Nc1cccc(C(F)(F)F)c1)Nc1cc(Cl)c(O)c(Cl)c1
8,213 to 221 °C,O=C(Nc1cc(Cl)c(O)c(Cl)c1)Nc1cc(C(F)(F)F)ccc1Cl
9,185 to 186 °C,Cc1cc(O)ccc1NC(=O)Nc1cccc(C(F)(F)F)c1
10,174 to 175 °C,O=C(Nc1cccc(C(F)(F)F)c1)Nc1c(O)cccc1[N+](=O)[O-]
11,194 to 196 °C,O=C(Nc1cccc(C(F)(F)F)c1)Nc1ccc(O)c(Cl)c1
12,172 to 176 °C,COc1ccc(Cl)cc1NC(=O)Nc1cc(C(F)(F)F)ccc1Cl
13,207 to 209 °C,Nc1cc(Cl)c(Cl)cc1NC(=O)Nc1cc(C(F)(F)F)ccc1Cl
14,210 to 211 °C,Cc1cc(O)ccc1NC(=O)Nc1cc(C(F)(F)F)ccc1Cl

# From patent US20070142450A1, “Novel urea derivatives and their medical use” (priority 2004, published 2007)
